Two compounds from patent US10299502B2, “Method for producing an extract of a matrix of vegetable origin with a non-ionic amphiphilic compound as extraction adjuvant in an aqueous medium” (PIERRE FABRE DERMO-COSMETIQUE, priority 2015, dated 2019) can be followed below.

A short description of data set [1]: Recovery of extracted α-mangostin by precipitation on dilution. The format is physicochemical. The text has this: The extract thus obtained may also be diluted in a volume of water optionally supplemented with one or more adjuvants selected from salts, acids or bases, so as to be at a final concentration of non-ionic amphiphilic compound below the sufficient concentration defined above. Thus, it is possible to recover the lipophilic compounds by precipitation and solid-liquid separation such as filtration or centrifugation.
At 7% amyl xyloside, 100% of the α-mangostin extracted precipitates.

A short description of data set [2]: Solubilization curves (Sudan red, α-mangostin) to determine the minimum hydrotrope concentration. The data set is classed as physicochemical. The note with it: deduced from solubilization curves in aqueous solution. The method, then: The term “minimum hydrotrope concentration” refers to the concentration above which these non-ionic amphiphilic compounds begin to form aggregates, i.e., new microenvironments with physical properties different from those observed when the compound is diluted, and different from micellar behavior. This minimum hydrotrope concentration is specific to each non-ionic amphiphilic compound and generally has the order of magnitude of the molarity. It can be determined by several physicochemical methods, such as by measuring surface tension, conductivity or dynamic and static light scattering (Self-association of nicotinamide in aqueous solution: Light-scattering and vapor pressure osmometry studies (1996) 85(8): 848-853), or quite simply by establishing a solubilization curve of a lipophilic compound (solubilized solute content as a function of concentration of non-ionic amphiphilic compound). Sudan red, a lipophilic dye easily measured by spectrophotometry, can be used as reference. […]
The solubilization curves of Sudan red in aqueous solutions of various non-ionic amphiphilic compounds at different concentrations were prepared. After saturation of the solutions with Sudan red and filtration, the Sudan red content solubilized in each solution is measured after dilution by UV spectrophotometry at 476 nm. […]

Take `CC(C)(O)CCO` [Isopentyldiol, 3-methyl-1,3-butanediol]: the “% of α-mangostin recovered by precipitation/α-mangostin extracted” value in data set [1] (extraction concentration 59%, concentration after dilution 24%) was 66%.

In the case of amyl xyloside, the “% of α-mangostin recovered by precipitation/α-mangostin extracted” value in data set [1] (extraction concentration 40%, concentration after dilution 7%) was 100%; in data set [1] (extraction concentration 40%, concentration after dilution 7%, listed as amyl xyloside), 100%; in data set [1] (extraction concentration 40%, concentration after dilution 15%), 12%; in data set [1] (extraction concentration 40%, concentration after dilution 15%, listed as amyl xyloside), “little α-mangostin precipitates”. Further, the “MHC (minimum hydrotrope concentration)” value in data set [2] was 5-10%.
